From US9532990B2 (Zhejiang DTRM Biopharma Co. Ltd., priority 2014, dated 2017)
Where two headings read alike, the source gives them in different places.

Target: BTK wild type (Homo sapiens (Human), UniProt Q06187)
Assay: Inhibition assay of BTK kinase activity (HTRF)
Assay type: biochemical
Description: Inhibition Assay of BTK Kinase Activity:
The enzyme reaction mixture of BTK wild type standard HTRF assay contained 1 nM BTK wild type, 1 μM biotin-TK1 peptide, and 30 μM ATP in a buffer. The enzyme reaction were carried out at room temperature for 60 minutes. […] The plates were incubated at room temperature for 60 minutes and then read in the Envision plate reader.

[1] = all compounds with IC50 of less 10 nM, read-out: IC50 (BTK)

BTK wild type, sequence (Q06187 whole entry): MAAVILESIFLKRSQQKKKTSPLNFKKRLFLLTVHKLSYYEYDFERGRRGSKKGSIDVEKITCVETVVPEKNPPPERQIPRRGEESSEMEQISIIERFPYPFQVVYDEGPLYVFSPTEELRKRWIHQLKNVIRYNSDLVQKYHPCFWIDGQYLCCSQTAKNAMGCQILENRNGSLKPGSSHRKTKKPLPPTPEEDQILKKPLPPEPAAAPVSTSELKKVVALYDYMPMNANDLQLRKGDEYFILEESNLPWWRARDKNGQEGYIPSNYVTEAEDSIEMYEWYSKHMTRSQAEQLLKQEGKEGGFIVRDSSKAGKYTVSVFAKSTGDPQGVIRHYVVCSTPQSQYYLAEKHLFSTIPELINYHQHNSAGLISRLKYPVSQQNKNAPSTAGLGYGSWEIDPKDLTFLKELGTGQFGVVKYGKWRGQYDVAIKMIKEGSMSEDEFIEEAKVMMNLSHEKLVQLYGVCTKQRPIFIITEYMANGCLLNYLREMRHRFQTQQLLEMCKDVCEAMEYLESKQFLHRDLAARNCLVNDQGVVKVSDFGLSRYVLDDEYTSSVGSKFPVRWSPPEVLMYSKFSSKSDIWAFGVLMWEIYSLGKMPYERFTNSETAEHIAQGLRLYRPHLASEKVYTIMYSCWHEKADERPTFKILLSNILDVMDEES

SMILES	IC50 (read-out: BTK IC50) [nM]	IC50 [1] [nM]
C=CC(=O)N1CCCC(n2nc(-c3ccc(C(=O)c4ccc(F)cc4)c(F)c3)c3c(N)ncnc32)C1 (centres unmarked) [Compound 1, 1-(3-(4-amino-3-(3-fluoro-4-(4-fluorobenzoyl)phenyl)-1H-pyrazolo[3,4-d]pyrimidin-1-yl)piperidin-1-yl)prop-2-en-1-one]	66	–
C=CC(=O)N1CCCC(n2nc(-c3ccc(C(=O)c4ccc(F)cc4)cc3F)c3c(N)ncnc32)C1 (centres unmarked) [Compound 2, 1-(3-(4-amino-3-(2-fluoro-4-(4-fluorobenzoyl)phenyl)-1H-pyrazolo[3,4-d]pyrimidin-1-yl)piperidin-1-yl)prop-2-en-1-one]	5	–
C=CC(=O)N1CCCC(n2nc(-c3ccc(C(=O)c4cccc(F)c4)c(F)c3)c3c(N)ncnc32)C1 (centres unmarked) [Compound 3, 1-(3-(4-amino-3-(3-fluoro-4-(3-fluorobenzoyl)phenyl)-1H-pyrazolo[3,4-d]pyrimidin-1-yl)piperidin-1-yl)prop-2-en-1-one]	10	–
C=CC(=O)N1CCCC(n2nc(-c3ccc(C(=O)c4ccccc4F)cc3F)c3c(N)ncnc32)C1 (centres unmarked) [Compound 4, 1-(3-(4-amino-3-(2-fluoro-4-(2-fluorobenzoyl)phenyl)-1H-pyrazolo[3,4-d]pyrimidin-1-yl)piperidin-1-yl)prop-2-en-1-one]	2	–
Cc1oncc1C(=O)N1CCCC(n2nc(-c3ccc(C(=O)c4cccc(F)c4)cc3F)c3c(N)ncnc32)C1 (centres unmarked) [Compound 6, (3-(4-amino-3-(2-fluoro-4-(3-fluorobenzoyl)phenyl)-1H-pyrazolo[3,4-d]pyrimidin-1-yl)piperidin-1-yl)(5-methylisoxazol-4-yl)methanone]	138	–
C/C(O)=C(/C#N)C(=O)N1CCCC(n2nc(-c3ccc(C(=O)c4cccc(F)c4)cc3F)c3c(N)ncnc32)C1 (centres unmarked) [Compound 7, (E)-2-(3-(4-amino-3-(2-fluoro-4-(3-fluorobenzoyl)phenyl)-1H-pyrazolo[3,4-d]pyrimidin-1-yl)piperidine-1-carbonyl)-3-hydroxybut-2-enenitrile]	730	–
C=CS(=O)(=O)N1CCCC(n2nc(-c3ccc(C(=O)c4cccc(F)c4)cc3F)c3c(N)ncnc32)C1 (centres unmarked) [Compound 8, (4-(4-amino-1-(1-(vinylsulfonyl)piperidin-3-yl)-1H-pyrazolo[3,4-d]pyrimidin-3-yl)-3-fluorophenyl)(3-fluorophenyl)methanone]	2	–
Nc1ncnc2c1c(-c1ccc(C(=O)c3cccc(F)c3)cc1F)nn2C1CCCN(C(=O)C2CO2)C1 (centres unmarked) [Compound 9, (3-(4-amino-3-(2-fluoro-4-(3-fluorobenzoyl)phenyl)-1H-pyrazolo[3,4-d]pyrimidin-1-yl)piperidin-1-yl)(oxiran-2-yl)methanone]	83	–
CC(C)(C)OC(=O)N1CCCC(n2nc(-c3ccc(Oc4ccccc4[N+](=O)[O-])cc3F)c3c(N)ncnc32)C1 (centres unmarked) [Compound 10, tert-butyl 3-(4-amino-3-(2-fluoro-4-(2-nitrophenoxy)phenyl)-1H-pyrazolo[3,4-d]pyrimidin-1-yl)piperidine-1-carboxylate]	1970	–
C=CC(=O)N1CCCC(n2nc(-c3ccc(Oc4c(F)c(F)cc(F)c4F)cc3F)c3c(N)ncnc32)C1 (centres unmarked) [Compound 11, 1-(3-(4-amino-3-(2-fluoro-4-(2,3,5,6-tetrafluorophenoxy)phenyl)-1H-pyrazolo[3,4-d]pyrimidin-1-yl)piperidin-1-yl)prop-2-en-1-one]	0.8	< 10
C=CC(=O)N1CCCC(n2nc(-c3ccc(Oc4cccc(F)c4[N+](=O)[O-])cc3F)c3c(N)ncnc32)C1 (centres unmarked) [Compound 12, 1-(3-(4-amino-3-(2-fluoro-4-(3-fluoro-2-nitrophenoxy)phenyl)-1H-pyrazolo[3,4-d]pyrimidin-1-yl)piperidin-1-yl)prop-2-en-1-one]	2	< 10
C=CC(=O)N[C@H]1CC[C@@H](n2nc(-c3ccc(Oc4cccc(F)c4)cc3F)c3c(N)ncnc32)CC1 [Compound 13, N-((1s,4s)-4-(4-amino-3-(2-fluoro-4-(3-fluorophenoxy)phenyl)-1H-pyrazolo[3,4-d]pyrimidin-1-yl)cyclohexyl)acrylamide]	1	< 10
C=CC(=O)N[C@H]1CC[C@H](n2nc(-c3ccc(Oc4cccc(F)c4)cc3F)c3c(N)ncnc32)CC1 [Compound 14, N-((1r,4r)-4-(4-amino-3-(2-fluoro-4-(3-fluorophenoxy)phenyl)-1H-pyrazolo[3,4-d]pyrimidin-1-yl)cyclohexyl)acrylamide]	9	–
C=CC(=O)N1CCC(n2nc(-c3ccc(Oc4cccc(F)c4)cc3F)c3c(N)ncnc32)C1 (centres unmarked) [Compound 15, 1-(3-(4-amino-3-(2-fluoro-4-(3-fluorophenoxy)phenyl)-1H-pyrazolo[3,4-d]pyrimidin-1-yl)pyrrolidin-1-yl)prop-2-en-1-one]	3	< 10
C=CC(=O)N[C@@H]1CC[C@@H](n2nc(-c3ccc(Oc4cccc(F)c4)cc3F)c3c(N)ncnc32)C1 [Compound 16, N-((1r,3r)-3-(4-amino-3-(2-fluoro-4-(3-fluorophenoxy)phenyl)-1H-pyrazolo[3,4-d]pyrimidin-1-yl)cyclopentyl)acrylamide]	3	< 10
C=CC(=O)N[C@H]1CC[C@@H](n2nc(-c3ccc(Oc4cccc(F)c4)cc3F)c3c(N)ncnc32)C1 [Compound 17, N-((1s,3r)-3-(4-amino-3-(2-fluoro-4-(3-fluorophenoxy)phenyl)-1H-pyrazolo[3,4-d]pyrimidin-1-yl)cyclopentyl)acrylamide]	4	< 10
C=CC(=O)N1CCCC(n2nc(-c3ccc(Oc4cccc(F)c4)cc3F)c3c(N)ncnc32)C1 (centres unmarked) [Compound 18, 1-(3-(4-amino-3-(2-fluoro-4-(3-fluorophenoxy)phenyl)-1H-pyrazolo[3,4-d]pyrimidin-1-yl)piperidin-1-yl)prop-2-en-1-one]	3	< 10
C=CC(=O)N1CCCC(n2nc(-c3ccc(Oc4ccccc4NS(C)(=O)=O)cc3F)c3c(N)ncnc32)C1 (centres unmarked) [Compound 19, N-(2-(4-(1-(1-acryloylpiperidin-3-yl)-4-amino-1H-pyrazolo[3,4-d]pyrimidin-3-yl)-3-fluorophenoxy)phenyl)methanesulfonamide]	67	–
C=CC(=O)N1CCCC(n2nc(-c3ccc(Oc4cccc(NS(C)(=O)=O)c4)cc3F)c3c(N)ncnc32)C1 (centres unmarked) [Compound 20, N-(3-(4-(1-(1-acryloylpiperidin-3-yl)-4-amino-1H-pyrazolo[3,4-d]pyrimidin-3-yl)-3-fluorophenoxy)phenyl)methanesulfonamide]	4	< 10
C=CC(=O)N1CCCC(n2nc(-c3ccc(Oc4c(F)ccc(F)c4F)cc3F)c3c(N)ncnc32)C1 (centres unmarked) [Compound 21, 1-(3-(4-amino-3-(2-fluoro-4-(2,3,6-trifluorophenoxy)phenyl)-1H-pyrazolo[3,4-d]pyrimidin-1-yl)piperidin-1-yl)prop-2-en-1-one]	5	< 10
C=CC(=O)N[C@H]1CC[C@@H](n2nc(-c3ccc(Oc4c(F)c(F)cc(F)c4F)cc3F)c3c(N)ncnc32)CC1 [Compound 22, N-((1s,4s)-4-(4-amino-3-(2-fluoro-4-(2,3,5,6-tetrafluorophenoxy)phenyl)-1H-pyrazolo[3,4-d]pyrimidin-1-yl)cyclohexyl)acrylamide]	50	–
C=CC(=O)N1CCC(n2nc3c4c(ncnc42)Nc2cc(Oc4c(F)c(F)cc(F)c4F)ccc2-3)C1 (centres unmarked) [Compound 24]	1020	–
C=CC(=O)N[C@@H]1CC[C@@H](n2nc(-c3ccc(Oc4c(F)c(F)cc(F)c4F)cc3F)c3c(N)ncnc32)C1 [Compound 25, N-((1r,3r)-3-(4-amino-3-(2-fluoro-4-(2,3,5,6-tetrafluorophenoxy)phenyl)-1H-pyrazolo[3,4-d]pyrimidin-1-yl)cyclopentyl)acrylamide]	17	–
C=CC(=O)N[C@H]1CC[C@@H](n2nc(-c3ccc(Oc4c(F)c(F)cc(F)c4F)cc3F)c3c(N)ncnc32)C1 [Compound 26, N-((1s,3r)-3-(4-amino-3-(2-fluoro-4-(2,3,5,6-tetrafluorophenoxy)phenyl)-1H-pyrazolo[3,4-d]pyrimidin-1-yl)cyclopentyl)acrylamide]	34	–
C=CC(=O)N1CCC(n2nc(-c3ccc(Oc4c(F)c(F)cc(F)c4F)cc3F)c3c(N)ncnc32)CC1 [Compound 27, 1-(4-(4-amino-3-(2-fluoro-4-(2,3,5,6-tetrafluorophenoxy)phenyl)-1H-pyrazolo[3,4-d]pyrimidin-1-yl)piperidin-1-yl)prop-2-en-1-one]	223	–
C=CC(=O)NCC1CCC(n2nc(-c3ccc(Oc4c(F)c(F)cc(F)c4F)cc3F)c3c(N)ncnc32)C1 (centres unmarked) [Compound 28, N-((3-(4-amino-3-(2-fluoro-4-(2,3,5,6-tetrafluorophenoxy)phenyl)-1H-pyrazolo[3,4-d]pyrimidin-1-yl)cyclopentyl)methyl)acrylamide]	7	–
C=CC(=O)N1CCC(Cn2nc(-c3ccc(Oc4c(F)c(F)cc(F)c4F)cc3F)c3c(N)ncnc32)C1 (centres unmarked) [Compound 29, 1-(3-((4-amino-3-(2-fluoro-4-(2,3,5,6-tetrafluorophenoxy)phenyl)-1H-pyrazolo[3,4-d]pyrimidin-1-yl)methyl)pyrrolidin-1-yl)prop-2-en-1-one]	26	–
C=CC(=O)N1CCC(Cn2nc(-c3ccc(Oc4c(F)c(F)cc(F)c4F)cc3F)c3c(N)ncnc32)CC1 [Compound 30, 1-(4-((4-amino-3-(2-fluoro-4-(2,3,5,6-tetrafluorophenoxy)phenyl)-1H-pyrazolo[3,4-d]pyrimidin-1-yl)methyl)piperidin-1-yl)prop-2-en-1-one]	24	–
C=CC(=O)N1CCCC(Cn2nc(-c3ccc(Oc4c(F)c(F)cc(F)c4F)cc3F)c3c(N)ncnc32)C1 (centres unmarked) [Compound 31, 1-(3-((4-amino-3-(2-fluoro-4-(2,3,5,6-tetrafluorophenoxy)phenyl)-1H-pyrazolo[3,4-d]pyrimidin-1-yl)methyl)piperidin-1-yl)prop-2-en-1-one]	15	–
